Test results: PubChem BioAssay (NCI)
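Exposure lasted 48 hours, with cells grown in 96-well plates and compounds tested at five concentrations. GI50 = concentration required for 50% inhibition of growth. TGI denotes the concentration required for complete inhibition of growth.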

Legend:
Test in all cases: NCI tumour cell line growth inhibition, 48 h
[1] = test system: HOP-62 NSCLC
[2] = test system: RPMI-8226 leukemia
[3] = test system: SK-MEL-5 melanoma
[4] = test system: SK-MEL-28 melanoma
[5] = test system: SF-268 CNS
[6] = test system: NCI-H226 lung
[7] = test system: TK-10 renal
[8] = test system: RXF 393 renal
[9] = test system: UACC-257 melanoma
[10] = test system: MDA-MB-435

Row | SMILES | GI50 [1] [µM] | TGI [1] [µM] | GI50 [2] [µM] | TGI [2] [µM] | GI50 [3] [µM] | TGI [3] [µM] | GI50 [4] [µM] | TGI [4] [µM] | GI50 [5] [µM] | TGI [5] [µM] | GI50 [6] [µM] | TGI [6] [µM] | GI50 [7] [µM] | TGI [7] [µM] | GI50 [8] [µM] | TGI [8] [µM] | GI50 [9] [µM] | TGI [9] [µM] | GI50 [10] [µM] | TGI [10] [µM]
1 | N#Cc1c(N)nc(N2CCOCC2)c(C#N)c1-c1c(Cl)cccc1Cl | 3.52 | 17.8 | 4.41 | 47.5 | 7.27 | 21 | 7.38 | 56 | 11.3 | > 100 | 15.2 | 73.8 | 20.9 | > 100 | 4.58 | 28.3 | 5.16 | 30.4 | 1.57 | 3.8
2 | FC(F)(F)c1cccc(-c2[nH]ncc2-c2nnnn2-c2ccccc2)c1 | 7.88 | 23.4 | 3.12 | 13.3 | 3.01 | 10.6 | 5.6 | 19.1 | 7.69 | 23.3 | 13.2 | 31.1 | 6.6 | 20 | 2.91 | 11.7 | 11.4 | 33.9 | 1.86 | 5.89
3 | COc1ccc2c(c1)/C(=N/OC(C)=O)c1c-2c(OC)nc2ccccc12 | 83.7 | > 100 | > 100 | > 100 | > 100 | > 100 | > 100 | > 100 | > 100 | > 100 | > 100 | > 100 | 79.1 | > 100 | 77.7 | > 100 | > 100 | > 100 | > 100 | > 100
4 | Oc1[nH]c2ccccc2c1C=Nc1ccc(-n2cncn2)cc1 | > 13.8 | > 22.2 | 18.3 | > 25 | 8.74 | > 25 | > 25 | > 25 | > 24.1 | > 25 | 8.34 | > 22.1 | > 17.1 | > 25 | > 14.5 | > 25 | > 25 | > 25 | > 25 | > 25
5 | O=C1NC(=NCCc2ccc(Br)cc2)S/C1=C\c1ccc2ncccc2c1 | > 25 | > 25 | > 25 | > 25 | > 21 | > 25 | > 25 | > 25 | 15.9 | > 25 | > 25 | > 25 | > 20.1 | > 25 | > 20.9 | > 25 | > 25 | > 25 | 11.8 | > 25
6 | COc1ccc2nc3ccccc3c(NCCNCC(C)O)c2c1 (stereo not given) | 0.369 | 2.57 | 0.398 | 2.66 | 1.03 | 2.3 | 0.539 | 2.77 | 0.583 | 11.1 | 0.708 | 4.79 | 0.54 | 6.04 | 0.373 | 1.74 | 0.81 | 3.84 | 0.433 | 1.77
7 | CC(C)(C)[Si](C)(C)OC1[C@@H](COC(=O)NC(=O)CCl)O[C@@H](n2cnc3c(N)ncnc32)[C@H]1O[Si](C)(C)C(C)(C)C (stereo not given in full) | 4.04 | 10.3 | 1.54 | 5.63 | 1.82 | 5.02 | 7.12 | 13.7 | 1.93 | 5.23 | 1.13 | 2.3 | 9.14 | 16.1 | 2.33 | 7.99 | 6.98 | 13.8 | 2.35 | 8.89
8 | CN(CCCCCl)P(=O)(OCc1ccc([N+](=O)[O-])o1)OCC1OC(n2cc([N+](=O)[O-])c(=O)[nH]c2=O)CC1O (stereo not given) | 41.2 | > 100 | > 100 | > 100 | > 100 | > 100 | 45.9 | > 100 | 3 | > 100 | 42.3 | > 100 | > 100 | > 100 | > 100 | > 100 | > 100 | > 100 | > 100 | > 100
9 | CCCCCCCCN=C(NCCCCCCCC)SCc1cccc2ccccc12 | 1.71 | 3.13 | 2.05 | 4.4 | 1.47 | 2.8 | 1.95 | 3.44 | 1.83 | 3.37 | 1.52 | 2.95 | 1.74 | 3.2 | 1.42 | 2.78 | 1.75 | 3.33 | 1.58 | 3.03
10 | COc1cnccc1Nc1nc(-c2nn(Cc3c(F)cc(OCCO)cc3F)c3ccccc23)ncc1OC | 2.46 | 8.32 | 2.19 | 55.2 | 2.91 | 13 | 2.47 | 9.66 | 3.85 | 15.9 | 12.4 | 31.9 | 14.5 | 27.7 | 3.85 | 17.1 | 4.38 | 17 | 1.73 | 6.18
11 | N=C(CC(=O)Nc1ccccn1)c1ccccc1 |  | > 100 |  | > 100 |  | > 100 |  | > 100 |  | > 100 |  | > 100 |  | > 100 |  | > 100 |  | > 100 |  | > 100
12 | CCOC(=O)/C=C1/SC(=Nc2ccc(C#N)cc2)N(Cc2ccco2)C1=O | 2.94 | 9.21 | 2.4 | 7.46 | 6.71 | 20.4 | 2.92 | 10.5 | 3.38 | 13.7 | 2.22 | 4.76 | 2.54 | 8.19 | 1.48 | 2.96 | 5.34 | 18.4 | 3.44 | 15.8
